Key:
[1] = Stability of DNCB in a dissolved state; assay type: physicochemical; settings: even more unstable at high temperatures
[2] = cited from earlier work

Structure (SMILES): O=[N+]([O-])c1ccc(Cl)c([N+](=O)[O-])c1 [DNCB, 1-chloro-2,4-dinitrobenzene]
- stability in a dissolved state [1]: unstable in a dissolved state
- adverse events of DNCB ([2]; reports to date): have not been any reports to date of cases of life-threatening adverse events
- carcinogenicity ([2]; research conducted in the 1950s in the United States): not carcinogenic
